Measured values published in article PMC7819857, “Identification of Inhibitors of Integrin Cytoplasmic Domain Interactions With Syk” (Frontiers in Immunology, 2021).

Key:
[1] = test system: Syk phosphorylation in THP-1 cells; assay: Integrin α4β1-induced phosphorylation of Syk in THP-1 cells plated on CS-1; format: cell-based, human
Procedure: Compound loading of cells was facilitated by glycerol shock ([32], [33]). Methods were first optimized with the cell-impermeable fluorophore Sulfo-Cy5 (see Supplemental Figure S5 ). For analysis of compound inhibition of integrin signaling, 3 × 10^6 THP-1 cells were incubated in 200 ul serum-free RPMI containing 15% glycerol and ceftazidime (at indicated concentrations) for 1 h at 20°C. RPMI (3 ml, room temperature) containing ceftazidime (at indicated concentrations) was added to the cells to dilute the glycerol, and the cells were further incubated for 10 min (room temperature). Cells were then plated onto CS-1-BSA-coated plates for 15 min at 37°C, lysed in RIPA buffer (1% Triton X-100, 50 mM Tris-HCl pH 7.2, 150 mM NaCl, 0.25% NaDOC, 0.05% SDS, 2 mM PMSF, 1 mM NaF, 1 mM Na3VO4, and protease inhibitor cocktail) (AEBSF, Aprotinin, E-64, Bestatin, Leupeptin and Pepstatin; VWR Cat#97063-010), and the lysates were subjected to Western blot as described below.
(§1) Syk phosphorylation assays were performed by immobilizing vascular cell adhesion molecule-1 (VCAM)-1 (3 ug/ml), CS-1-BSA (10 ug/ml), or specific monoclonal antibodies (anti-FcγRI mAb 276426, anti-α4β1 mAb 19H8, anti-β2 mAb 76C3, anti-αvβ3 mAb LM609 all at 5 ug/ml) overnight at 4°C in Tris-HCl pH 7.5, 150 mM NaCl, in 6-well plates (non-tissue culture treated, Becton Dickenson, cat# BD351146). […] After electrophoresis, proteins were transferred to nitrocellulose for 1 h 100 V room temperature, blocked in 5% non-fat milk in TBS-T, and probed with the indicated primary antibody at 1:1,000 overnight at 4°C, followed by species-appropriate HRP secondary antibody (Southern Biotech) at 1:5,000 (30 min at room temperature), and detected using Pierce West Pico (Thermo Scientific cat# 34580). […]
Figure 4 Ceftazidime inhibition of integrin signaling. (A) Dose-response curves comparing ceftazidime antagonist activity against integrin β1A, β2, and β3 cytoplasmic domains binding to Syk as measured in AlphaScreen assays. […] Data are expressed as mean fluorescence (Fl520) ± the range from duplicate determinations. […]

[2] = test system: FcγRI signaling via Syk in THP-1 cells; assay: FcγRI-crosslinking-induced phosphorylation of Syk in THP-1 cells; format: cell-based, human; conditions: 100 µM loaded cells, anti-FcγRI mAb 276426
Procedure: as §1, with “BD351146). Plates were then blocked with BSA (2% w/v) for 1 h at room temperature.” for “BD351146).”
Figure 6 Selective inhibition of integrin signaling by ceftazidime. […] Data are expressed as mean ± range from duplicate determinations. […] Kinase activity is expressed as percent of maximum signal. Data are expressed as mean ± SEM (n = 3). **p < 0.01 (D) Selective effects of ceftazidime on integrin signaling. […] Phosphorylation of Syk (left and right panel) and Pyk-2 (center panel) was analyzed by immunoprecipitation and western blot. […] Results are expressed as the mean ± SEM. […]

## CC(C)(O/N=C(\C(=O)N[C@@H]1C(=O)N2C(C(=O)[O-])=C(C[n+]3ccccc3)CS[C@H]12)c1csc(N)n1)C(=O)O [ceftazidime]
[1]; 100 µM loaded by glycerol shock, plated on CS-1, immunoprecipitation and western blot
  integrin α4β1 induced phosphorylation of Syk: inhibited
[1]; ceftazidime loaded by glycerol shock, indicated doses, cells plated on CS-1
  α4β1-induced phosphorylation of Syk (pY352): inhibited
[1]; drug simply added to THP-1 cells, no glycerol loading
  α4β1 signaling through Syk: negative
[2]
  tyrosine phosphorylation of Syk on FcγRI crosslinking: not inhibited
